pIC50: −log10 of the molar value. Where two headings read alike, the source gives them in different places.
Key:
Release kinetics assay = format: physicochemical; conditions: pH 4.0, 37° C.
Description: The SO1861 conjugate of interest was dissolved in an acetate buffer (20 mM, pH 4.0 or pH 5.0), a phosphate buffer (20 mM) or in a PBS buffer (pH 7.4) with a final concentration of 10 μM at 20° C. or at 37° C. The release of SO1861 was followed overtime by monitoring the decrease of the UPLC-UV 4 peak area of the SO1861 conjugate of interest at different time points.

[1] = test system: human red blood cells (RBC); experiment: Haemolysis assay; format: cell-based; conditions: fresh human red blood cells
Description: Red blood cells (RBCs) were isolated from a buffy coat using a Ficoll gradient. The obtained RBC pellet (˜4-5 ml) was washed 2× with 50 ml DPBS (without Ca^2+/Mg^2+, PAN-Biotech GmbH). Cells were pelleted by centrifugation for 10 min, 800×g at RT. RBC were counted and resuspended at 500,000,000 c/ml in DPBS (without Ca^2+/Mg^2+), based on total cell count. SO1861-linker dilutions were prepared in DPBS (with Ca^2+/Mg^2+, PAN-Biotech GmbH), at 1.11× final strength. For positive lysis control a 0.02% Triton-X100 solution was prepared in DPBS^+/+. Of all compound solutions 135 μl was dispensed/well in a 96 well V-bottom plate. To this 15 μl RBC suspension was added and mixed shortly (10 sec-600 rpm). The plate was incubated 30 min at RT, with gentle agitation. Afterwards the plate was spun for 10 min at 800×g to pellet the RBC and 100-120 μl supernatant was transferred to a standard 96 wp. Subsequently, the OD at 405 nm was measured on a Thermo Scientific Multiskan FC plate reader (Thermo Scientific).

[2] = test system: HSP27 mRNA expression in A431 cells; experiment: HSP27 gene silencing (qPCR) in A431 cells; format: cell-based; conditions: Homo sapiens, A-431, saponin titrated +50 nM Trastuzumab-HSP27BNA
Excerpt: RNA Isolation and Gene Expression Analysis
RNA from cells was isolated and analysed according to standard protocols (Biorad).

HeLa cells [3] = experiment: Cell toxicity (MTS cell viability assay); format: cell-based, human; conditions: saponin alone
Description: (§1) Cell viability was determined by an MTS-assay, performed according to the manufacturer's instruction (CellTiter 96® AQueous One Solution Cell Proliferation Assay, Promega). Briefly, the MTS solution was diluted 20× in DMEM without phenol red (PAN-Biotech GmbH) supplemented with 10% FBS (PAN-Biotech GmbH). The cells were washed once with 200 μL PBS per well, after which 100 μL diluted MTS solution was added per well. The plate was incubated for approximately 20-30 minutes at 37° C. Subsequently, the optical density at 492 nm was measured on a Thermo Scientific Multiskan FC plate reader (Thermo Scientific).

A431 cells [4] = format: cell-based, human
Description: as §1

HeLa cells [5] = format: cell-based, human
Description: as §1

A431 cells [6] = experiment: Cell toxicity (MTS cell viability assay); format: cell-based, human; conditions: saponin alone
Description: as §1

[7] = +5 pM EGFdianthin or 10 pM cetuximab-saporin or 50 pM Trastuzumab-saporin
[8] = read-out: IC50 nM (Activity; +5 pM EGFdianthin), saponin titrated +5 pM EGFdianthin

SMILES | time to 50% release of SO1861 (Release kinetics assay) [h] | pIC50 ([1]; Erythrocyte) | pIC50 [2] | pIC50 (HeLa cells [3]; Homo sapiens) | cell-killing activity compared with the SO1861 derivatives (A431 cells [4]; [7]) | IC50 (A431 cells [4]; [8]) [nM] | cell-killing activity compared with the SO1861 derivatives (HeLa cells [5]; [7]) | IC50 (HeLa cells [5]; [8]) [nM] | pIC50 (A431 cells [6]) | pIC50 (HeLa cells [3]) | pIC50 [1]
CC(=O)OC1C(C)OC(OC2C(C)OC(OC(=O)[C@]34CCC(C)(C)CC3C3=CCC5[C@@]6(C)CC[C@H](OC7OC(C(=O)O)C(O)C(OC8OCC(O)C(O)C8O)C7OC7OC(CO)C(O)C(O)C7O)[C@@](C)(C=NNC(=O)CCCCCN7C(=O)CC(SCCO)C7=O)C6CC[C@@]5(C)[C@]3(C)C[C@H]4O)C(OC3OC(C)C(OC4OCC(O)C(OC5OC(CO)C(O)C(O)C5O)C4O)C(O)C3O)C2O)C(O)C1OC1OCC(O)C(O)C1O (stereo partly drawn) [SO1861-EMCH (blocked)] | 12 | 5.22 | – | – | – | – | – | – | – | – | –
CC(=O)OC1C(C)OC(OC2C(C)OC(OC(=O)[C@]34CCC(C)(C)CC3C3=CCC5[C@@]6(C)CC[C@H](OC7OC(C(=O)O)C(O)C(OC8OCC(O)C(O)C8O)C7OC7OC(CO)C(O)C(O)C7O)[C@@](C)(C=NNC(=O)N7CCN(C(=O)CCCCCN8C(=O)C=CC8=O)CC7)C6CC[C@@]5(C)[C@]3(C)C[C@H]4O)C(OC3OC(C)C(OC4OCC(O)C(OC5OC(CO)C(O)C(O)C5O)C4O)C(O)C3O)C2O)C(O)C1OC1OCC(O)C(O)C1O (stereo partly drawn) [SO1861-SC-Mal] | – | 3.60 | 6.22 | < 4.00 | – | – | – | – | – | – | –
CC(=O)O[C@H]1[C@H](O[C@@H]2OC[C@@H](O)[C@H](O)[C@H]2O)[C@@H](O)[C@H](O[C@@H]2[C@H](O)[C@@H](O[C@@H]3O[C@@H](C)[C@H](O[C@@H]4OC[C@@H](O)[C@H](O[C@@H]5O[C@H](CO)[C@@H](O)[C@H](O)[C@H]5O)[C@H]4O)[C@@H](O)[C@H]3O)[C@H](OC(=O)[C@]34CCC(C)(C)C[C@H]3C3=CC[C@@H]5[C@@]6(C)CC[C@H](O[C@@H]7O[C@H](C(=O)O)[C@@H](O)[C@H](O[C@@H]8OC[C@@H](O)[C@H](O)[C@H]8O)[C@H]7O[C@@H]7O[C@H](CO)[C@H](O)[C@H](O)[C@H]7O)[C@@](C)(C=O)[C@@H]6CC[C@@]5(C)[C@]3(C)C[C@H]4O)O[C@@H]2C)O[C@@H]1C [SO1861] | – | – | – | – | strongest cell-killing activity | 300 | strongest cell-killing activity | 500 | 5.70 | 5.05 | 5.00
